From PubChem BioAssay (NCI)
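Exposure lasted 48 hours, with cells grown in 96-well plates and compounds tested at five concentrations. At the GI50, growth is halved. TGI: total growth inhibition.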

What was measured:
Test in all cases: DTP human tumour cell line panel, 48 h
NCI-H522 lung = test system: NCI-H522 lung
NCI/ADR-RES ovarian = test system: NCI/ADR-RES ovarian
OVCAR-3 ovarian = test system: OVCAR-3 ovarian
OVCAR-4 ovarian = test system: OVCAR-4 ovarian
OVCAR-5 ovarian = test system: OVCAR-5 ovarian
OVCAR-8 ovarian = test system: OVCAR-8 ovarian
PC-3 prostate = test system: PC-3 prostate
RPMI-8226 leukemia = test system: RPMI-8226 leukemia
RXF 393 renal = test system: RXF 393 renal
SF-268 CNS = test system: SF-268 CNS
SF-295 CNS = test system: SF-295 CNS
SF-539 CNS = test system: SF-539 CNS
SK-MEL-2 melanoma = test system: SK-MEL-2 melanoma
SK-MEL-28 melanoma = test system: SK-MEL-28 melanoma
SK-MEL-5 melanoma = test system: SK-MEL-5 melanoma
SK-OV-3 ovarian = test system: SK-OV-3 ovarian
SN12C renal = test system: SN12C renal
SNB-19 CNS = test system: SNB-19 CNS
SNB-75 CNS = test system: SNB-75 CNS
SW-620 colon = test system: SW-620 colon
T-47D breast = test system: T-47D breast
TK-10 renal = test system: TK-10 renal
U251 CNS = test system: U251 CNS
UACC-257 melanoma = test system: UACC-257 melanoma
UACC-62 melanoma = test system: UACC-62 melanoma
UO-31 renal = test system: UO-31 renal

Question: Which GI50 (NCI-H522 lung) does the source give for `CCN1CCN(S(=O)(=O)c2oc(-c3ccc(Cl)cc3)nc2C#N)CC1` here?
Answer: The GI50 was 1.48 µM.

Question: What about the TGI (NCI-H522 lung) of the same molecule?
Answer: Its TGI is 3.06 µM.

Question: What about the GI50 (NCI/ADR-RES ovarian) of the same molecule?
Answer: Its GI50 is 18.7 µM.

Question: And the TGI (NCI/ADR-RES ovarian)?
Answer: The TGI was 62.7 µM.

Question: What about the GI50 (OVCAR-3 ovarian) of the same molecule?
Answer: The GI50 was 1.95 µM.

Question: What about the TGI (OVCAR-3 ovarian) of the same molecule?
Answer: The TGI was 3.74 µM.

Question: What about the GI50 (OVCAR-4 ovarian) of the same molecule?
Answer: Its GI50 is 4.04 µM.

Question: And the TGI (OVCAR-4 ovarian)?
Answer: Its TGI is 23.4 µM.

Question: What about the GI50 (OVCAR-5 ovarian) of the same molecule?
Answer: The GI50 was 14.5 µM.

Question: What about the TGI (OVCAR-5 ovarian) of the same molecule?
Answer: The TGI was 29.4 µM.

Question: What about the GI50 (OVCAR-8 ovarian) of the same molecule?
Answer: The GI50 was 12.9 µM.

Question: And the TGI (OVCAR-8 ovarian)?
Answer: Its TGI is 27.2 µM.

Question: What about the GI50 (PC-3 prostate) of the same molecule?
Answer: The GI50 was 13.3 µM.

Question: And the TGI (PC-3 prostate)?
Answer: The TGI was 26.9 µM.

Question: And the GI50 (RPMI-8226 leukemia)?
Answer: Its GI50 is 3.26 µM.

Question: And the TGI (RPMI-8226 leukemia)?
Answer: Its TGI is 13.5 µM.

Question: What about the GI50 (RXF 393 renal) of the same molecule?
Answer: Its GI50 is 1.89 µM.

Question: And the TGI (RXF 393 renal)?
Answer: Its TGI is 3.5 µM.

Question: What about the GI50 (SF-268 CNS) of the same molecule?
Answer: Its GI50 is 11.8 µM.

Question: And the TGI (SF-268 CNS)?
Answer: The TGI was 41.3 µM.

Question: What about the GI50 (SF-295 CNS) of the same molecule?
Answer: The GI50 was 17.3 µM.

Question: And the TGI (SF-295 CNS)?
Answer: The TGI was 31.8 µM.

Question: And the GI50 (SF-539 CNS)?
Answer: Its GI50 is 6.47 µM.

Question: What about the TGI (SF-539 CNS) of the same molecule?
Answer: The TGI was 19.8 µM.

Question: And the GI50 (SK-MEL-2 melanoma)?
Answer: The GI50 was 14.5 µM.

Question: And the TGI (SK-MEL-2 melanoma)?
Answer: Its TGI is 28.3 µM.

Question: And the GI50 (SK-MEL-28 melanoma)?
Answer: The GI50 was 3.6 µM.

Question: What about the TGI (SK-MEL-28 melanoma) of the same molecule?
Answer: Its TGI is 12.3 µM.

Question: And the GI50 (SK-MEL-5 melanoma)?
Answer: Its GI50 is 15.9 µM.

Question: What about the TGI (SK-MEL-5 melanoma) of the same molecule?
Answer: Its TGI is 29.6 µM.

Question: What about the GI50 (SK-OV-3 ovarian) of the same molecule?
Answer: Its GI50 is 18.7 µM.

Question: What about the TGI (SK-OV-3 ovarian) of the same molecule?
Answer: Its TGI is 36.9 µM.

Question: What about the GI50 (SN12C renal) of the same molecule?
Answer: The GI50 was 11.4 µM.

Question: What about the TGI (SN12C renal) of the same molecule?
Answer: Its TGI is 24.5 µM.

Question: And the GI50 (SNB-19 CNS)?
Answer: The GI50 was 15.7 µM.

Question: What about the TGI (SNB-19 CNS) of the same molecule?
Answer: The TGI was 29.3 µM.

Question: What about the GI50 (SNB-75 CNS) of the same molecule?
Answer: The GI50 was 14.1 µM.

Question: And the TGI (SNB-75 CNS)?
Answer: Its TGI is 27.4 µM.

Question: What about the GI50 (SW-620 colon) of the same molecule?
Answer: Its GI50 is 1.69 µM.

Question: And the TGI (SW-620 colon)?
Answer: The TGI was 4.17 µM.

Question: And the GI50 (T-47D breast)?
Answer: The GI50 was 2.24 µM.

Question: And the TGI (T-47D breast)?
Answer: Its TGI is 6.24 µM.

Question: And the GI50 (TK-10 renal)?
Answer: Its GI50 is 12.8 µM.

Question: What about the TGI (TK-10 renal) of the same molecule?
Answer: The TGI was 25.8 µM.

Question: What about the GI50 (U251 CNS) of the same molecule?
Answer: The GI50 was 14.9 µM.

Question: What about the TGI (U251 CNS) of the same molecule?
Answer: Its TGI is 30.9 µM.

Question: And the GI50 (UACC-257 melanoma)?
Answer: Its GI50 is 10.8 µM.

Question: What about the TGI (UACC-257 melanoma) of the same molecule?
Answer: The TGI was 23.1 µM.

Question: What about the GI50 (UACC-62 melanoma) of the same molecule?
Answer: Its GI50 is 11.2 µM.

Question: What about the TGI (UACC-62 melanoma) of the same molecule?
Answer: The TGI was 24.2 µM.

Question: What about the GI50 (UO-31 renal) of the same molecule?
Answer: The GI50 was 4.1 µM.

Question: What about the TGI (UO-31 renal) of the same molecule?
Answer: Its TGI is 15.9 µM.
